Experimental data: patent US20100261723A1, “TRISUBSTITUTED PYRIMIDINE DERIVATIVES FOR THE TREATMENT OF PROLIFERATIVE DISEASES” (ASTRAZENECA AB, priority 2007, published 2010)
pIC50: −log10 of the molar value.

Biological target: T1, mTOR kinase (Homo sapiens, UniProt P42345)
T1 construct: FLAG; made in house
Test: In vitro mTOR kinase assay, Test (a)(i) (AlphaScreen)
Type: biochemical
Details: recombinant FLAG-tagged mTOR (1362-2549), ATP 20 μM; read-out: Test (a)(i) IC50
Protocol: (a)(i) In Vitro mTOR Kinase Assay
A C-terminal truncation of mTOR encompassing amino acid residues 1362 to 2549 of mTOR (EMBL Accession No. L34075) was stably expressed as a FLAG-tagged fusion in HEK293 cells as described by Vilella-Bach et al., […], 1999, 274, 4266-4272. The HEK293 FLAG-tagged mTOR (1362-2549) stable cell line was routinely maintained at 37° C. with 5% CO2 up to a confluency of 70-90% in Dulbecco's modified Eagle's growth medium (DMEM; Invitrogen Limited, Paisley, UK Catalogue No. 41966-029) containing 10% heat-inactivated foetal calf serum (FCS; Sigma, Poole, Dorset, UK, Catalogue No. F0392), 1% L-glutamine (Gibco, Catalogue No. 25030-024) and 2 mg/ml Geneticin (G418 sulfate; Invitrogen Limited, UK Catalogue No. 10131-027). Following expression in the mammalian HEK293 cell line, expressed protein was purified using the FLAG epitope tag using standard purification techniques.
A 30 μl mixture of recombinant purified mTOR enzyme, 1 μM biotinylated peptide substrate (Biotin-Ahx-[…]NH2; Bachem UK Ltd), ATP (20 μM) and a buffer solution [comprising Tris-HCl pH7.4 buffer (50 mM), EGTA (0.1 mM), bovine serum albumin (0.5 mg/mL), DTT (1.25 mM) and manganese chloride (10 mM)] was agitated at room temperature for 90 minutes.
These assay solutions were incubated for 2 hours at room temperature.
Phosphorylated biotinylated peptide is formed in situ as a result of mTOR mediated phosphorylation. The phosphorylated biotinylated peptide that is associated with AlphaScreen Streptavidin donor beads forms a complex with the p70 S6 Kinase (T389) 1A5 Monoclonal Antibody that is associated with Alphascreen Protein A acceptor beads. […] Accordingly, the presence of mTOR kinase activity results in an assay signal. In the presence of an mTOR kinase inhibitor, signal strength is reduced.

T1 sequence (P42345 1362-2549): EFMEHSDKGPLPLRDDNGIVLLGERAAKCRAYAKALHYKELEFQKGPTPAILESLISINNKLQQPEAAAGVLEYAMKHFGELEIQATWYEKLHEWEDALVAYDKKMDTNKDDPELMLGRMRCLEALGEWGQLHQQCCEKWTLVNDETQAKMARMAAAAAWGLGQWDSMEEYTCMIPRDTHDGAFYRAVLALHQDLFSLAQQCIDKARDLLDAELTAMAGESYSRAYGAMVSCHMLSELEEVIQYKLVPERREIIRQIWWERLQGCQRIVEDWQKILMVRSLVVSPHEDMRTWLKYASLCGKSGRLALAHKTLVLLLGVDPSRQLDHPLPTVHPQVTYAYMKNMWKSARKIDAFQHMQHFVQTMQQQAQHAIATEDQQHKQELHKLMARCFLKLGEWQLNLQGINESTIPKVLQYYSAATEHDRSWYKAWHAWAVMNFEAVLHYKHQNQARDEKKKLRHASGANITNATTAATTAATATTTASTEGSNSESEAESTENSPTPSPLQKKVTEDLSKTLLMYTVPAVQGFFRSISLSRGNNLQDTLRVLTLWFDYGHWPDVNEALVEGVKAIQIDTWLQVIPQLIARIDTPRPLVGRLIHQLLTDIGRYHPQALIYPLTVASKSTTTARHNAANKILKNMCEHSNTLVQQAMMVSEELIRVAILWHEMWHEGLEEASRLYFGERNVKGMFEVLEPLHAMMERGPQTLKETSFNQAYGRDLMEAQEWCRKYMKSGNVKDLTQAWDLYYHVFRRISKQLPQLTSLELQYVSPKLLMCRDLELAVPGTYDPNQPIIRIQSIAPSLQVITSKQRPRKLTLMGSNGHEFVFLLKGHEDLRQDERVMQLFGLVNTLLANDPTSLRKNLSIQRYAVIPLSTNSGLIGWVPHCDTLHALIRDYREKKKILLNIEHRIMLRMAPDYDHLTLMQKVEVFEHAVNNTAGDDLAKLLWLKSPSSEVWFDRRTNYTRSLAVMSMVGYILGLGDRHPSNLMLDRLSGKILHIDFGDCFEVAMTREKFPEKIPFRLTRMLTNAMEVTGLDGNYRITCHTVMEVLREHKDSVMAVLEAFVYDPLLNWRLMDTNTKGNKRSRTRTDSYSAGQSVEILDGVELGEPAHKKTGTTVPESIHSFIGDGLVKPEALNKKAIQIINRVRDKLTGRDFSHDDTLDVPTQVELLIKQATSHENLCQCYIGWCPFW

Compound | pIC50
CS(=O)(=O)Cc1cc(N2CCOCC2)nc(-c2ccc(NC(=O)C3(C#N)CC3)cc2)n1 [Example 5at, 1-cyano-N-[4-[4-(methylsulfonylmethyl)-6-morpholin-4-yl-pyrimidin-2-yl]phenyl]cyclopropane-1-carboxamide] | 6.00
CS(=O)(=O)Cc1cc(N2CCOCC2)nc(-c2ccc(NC(=O)CCC#N)cc2)n1 [Example 5au, 3-cyano-N-[4-[4-(methylsulfonylmethyl)-6-morpholin-4-yl-pyrimidin-2-yl]phenyl]propanamide] | 6.78
CCCC(=O)Nc1ccc(-c2nc(CS(C)(=O)=O)cc(N3CCOCC3)n2)cc1 [Example 5b, N-[4-[4-(methylsulfonylmethyl)-6-morpholin-4-yl-pyrimidin-2-yl]phenyl]butanamide] | 6.17
CC(=O)NCC(=O)Nc1ccc(-c2nc(CS(C)(=O)=O)cc(N3CCOCC3)n2)cc1 [Example 5c, N-[[4-[4-(methylsulfonylmethyl)-6-morpholin-4-yl-pyrimidin-2-yl]phenyl]carbamoylmethyl] acetamide] | 5.86
CC(=O)NC(C)C(=O)Nc1ccc(-c2nc(CS(C)(=O)=O)cc(N3CCOCC3)n2)cc1 (stereo not shown) [Example 5d, 2-acetamido-N-[4-[4-(methylsulfonylmethyl)-6-morpholin-4-yl-pyrimidin-2-yl]phenyl]propanamide] | 5.14
CS(=O)(=O)CC(=O)Nc1ccc(-c2nc(CS(C)(=O)=O)cc(N3CCOCC3)n2)cc1 [Example 5e, 2-methylsulfonyl-N-[4-[4-(methylsulfonylmethyl)-6-morpholin-4-yl-pyrimidin-2-yl]phenyl]acetamide] | 5.75
CS(=O)(=O)Cc1cc(N2CCOCC2)nc(-c2ccc(NC(=O)c3c[nH]cn3)cc2)n1 [Example 5f, N-[4-[4-(methylsulfonylmethyl)-6-morpholin-4-yl-pyrimidin-2-yl]phenyl]-1H-imidazole-4-carboxamide] | 6.02
CC(C)C(=O)Nc1ccc(-c2nc(CS(C)(=O)=O)cc(N3CCOCC3)n2)cc1 [Example 5g, 2-methyl-N-[4-[4-(methylsulfonylmethyl)-6-morpholin-4-yl-pyrimidin-2-yl]phenyl]propanamide] | 5.44
CC(C)CC(=O)Nc1ccc(-c2nc(CS(C)(=O)=O)cc(N3CCOCC3)n2)cc1 [Example 5h, 3-methyl-N-[4-[4-(methylsulfonylmethyl)-6-morpholin-4-yl-pyrimidin-2-yl]phenyl]butanamide] | 5.59
CS(=O)(=O)Cc1cc(N2CCOCC2)nc(-c2ccc(NC(=O)c3ccco3)cc2)n1 [Example 5i, N-[4-[4-(methylsulfonylmethyl)-6-morpholin-4-yl-pyrimidin-2-yl]phenyl]furan-2-carboxamide] | 5.85
COCC(=O)Nc1ccc(-c2nc(CS(C)(=O)=O)cc(N3CCOCC3)n2)cc1 [Example 5j, 2-methoxy-N-[4-[4-(methylsulfonylmethyl)-6-morpholin-4-yl-pyrimidin-2-yl]phenyl]acetamide] | 5.08
COCCC(=O)Nc1ccc(-c2nc(CS(C)(=O)=O)cc(N3CCOCC3)n2)cc1 [Example 5k, 3-methoxy-N-[4-[4-(methylsulfonylmethyl)-6-morpholin-4-yl-pyrimidin-2-yl]phenyl]propanamide] | 5.68
CCOCCC(=O)Nc1ccc(-c2nc(CS(C)(=O)=O)cc(N3CCOCC3)n2)cc1 [Example 5l, 3-ethoxy-N-[4-[4-(methylsulfonylmethyl)-6-morpholin-4-yl-pyrimidin-2-yl]phenyl]propanamide] | 5.70
CS(=O)(=O)Cc1cc(N2CCOCC2)nc(-c2ccc(NC(=O)CCC(F)(F)F)cc2)n1 [Example 5m, 4,4,4-trifluoro-N-[4-[4-(methylsulfonylmethyl)-6-morpholin-4-yl-pyrimidin-2-yl]phenyl]butanamide] | 5.95
CS(=O)(=O)Cc1cc(N2CCOCC2)nc(-c2ccc(NC(=O)C3CC3)cc2)n1 [Example 5n, N-[4-[4-(methylsulfonylmethyl)-6-morpholin-4-yl-pyrimidin-2-yl]phenyl] cyclopropanecarboxamide] | 6.21
CS(=O)(=O)Cc1cc(N2CCOCC2)nc(-c2ccc(NC(=O)CC#N)cc2)n1 [Example 5o, 2-cyano-N-[4-[4-(methylsulfonylmethyl)-6-morpholin-4-yl-pyrimidin-2-yl]phenyl]acetamide] | 5.73
CS(=O)(=O)Cc1cc(N2CCOCC2)nc(-c2ccc(NC(=O)CCc3ccco3)cc2)n1 [Example 5q, 3-(2-furyl)-N-[4-[4-(methylsulfonylmethyl)-6-morpholin-4-yl-pyrimidin-2-yl]phenyl]propanamide] | 5.31
CS(=O)(=O)Cc1cc(N2CCOCC2)nc(-c2ccc(NC(=O)c3cccnc3)cc2)n1 [Example 5r, N-[4-[4-(methylsulfonylmethyl)-6-morpholin-4-yl-pyrimidin-2-yl]phenyl]pyridine-3-carboxamide] | 5.56
CS(=O)(=O)Cc1cc(N2CCOCC2)nc(-c2ccc(NC(=O)C(N)=O)cc2)n1 [Example 5s, N-[4-[4-(methylsulfonylmethyl)-6-morpholin-4-yl-pyrimidin-2-yl]phenyl]oxamide] | 5.64
CS(=O)(=O)Cc1cc(N2CCOCC2)nc(-c2ccc(NC(=O)C3CCC(=O)N3)cc2)n1 (stereo not shown) [Example 5t, N-[4-[4-(methylsulfonylmethyl)-6-morpholin-4-yl-pyrimidin-2-yl]phenyl]-5-oxo-pyrrolidine-2-carboxamide] | 5.54
CS(=O)(=O)Cc1cc(N2CCOCC2)nc(-c2ccc(NC(=O)C3CCOC3)cc2)n1 (stereo not shown) [Example 5u, N-[4-[4-(methylsulfonylmethyl)-6-morpholin-4-yl-pyrimidin-2-yl]phenyl]oxolane-3-carboxamide] | 5.32
CS(=O)(=O)Cc1cc(N2CCOCC2)nc(-c2ccc(NC(=O)c3ccno3)cc2)n1 [Example 5v, N-[4-[4-(methylsulfonylmethyl)-6-morpholin-4-yl-pyrimidin-2-yl]phenyl]-1,2-oxazole-5-carboxamide] | 7.43
Cc1ccc(C(=O)Nc2ccc(-c3nc(CS(C)(=O)=O)cc(N4CCOCC4)n3)cc2)cn1 [Example 5w, 6-methyl-N-[4-[4-(methylsulfonylmethyl)-6-morpholin-4-yl-pyrimidin-2-yl]phenyl]pyridine-3-carboxamide] | 5.09
CS(=O)(=O)Cc1cc(N2CCOCC2)nc(-c2ccc(NC(=O)c3ccc(C#N)nc3)cc2)n1 [Example 5x, 6-cyano-N-[4-[4-(methylsulfonylmethyl)-6-morpholin-4-yl-pyrimidin-2-yl]phenyl]pyridine-3-carboxamide] | 5.21
CS(=O)(=O)Cc1cc(N2CCOCC2)nc(-c2ccc(NC(=O)Cn3ccnc3)cc2)n1 [Example 5y, 2-imidazol-1-yl-N-[4-[4-(methylsulfonylmethyl)-6-morpholin-4-yl-pyrimidin-2-yl]phenyl]acetamide] | 5.60
Cc1ccc(C(=O)Nc2ccc(-c3nc(CS(C)(=O)=O)cc(N4CCOCC4)n3)cc2)n1C [Example 5z, 1,5-dimethyl-N-[4-[4-(methylsulfonylmethyl)-6-morpholin-4-yl-pyrimidin-2-yl]phenyl]pyrrole-2-carboxamide] | 5.04
C[C@H]1COCCN1c1cc(CS(C)(=O)=O)nc(-c2ccc(N(C)C(=O)c3ccno3)cc2)n1 [Example 7, N-Methyl-N-[4-[4-[(3S)-3-methylmorpholin-4-yl]-6-(methylsulfonylmethyl)pyrimidin-2-yl]phenyl]-1,2-oxazole-5-carboxamide] | 6.62
C[C@H]1COCCN1c1cc(CS(C)(=O)=O)nc(-c2cccc(NC(=O)c3ccno3)c2)n1 [Example 7a, N-[3-[4-[(3S)-3-methylmorpholin-4-yl]-6-(methylsulfonylmethyl)pyrimidin-2-yl]phenyl]-1,2-oxazole-5-carboxamide] | 5.70
